From patent US20030228365A1, “Pharmaceutical formulation” (priority 2002, published 2003)
Where a SMILES comes first, the peptide text is derived from it.

Procedure: A sample of the compound of formula (Ia) in PLG gel was dissolved in aqueous acetonitrile and further diluted with water. The precipitated polymer was subsequently removed by filtration through a membrane filter. The concentration of the compound of formula (Ia) in the filtrate was determined by HPLC.

degradation found by HPLC: no extensive degradation
Compound: CCC[C@H](NC(=O)[C@@H](NC(=O)[C@H](NC(=O)[C@@H](NC(=O)CNC(=O)CN(C)C(C)=O)C(C)C)[C@H](C)CC)[C@@H](C)O)C(=O)N[C@H](C(=O)N[C@@H](CCCN=C(N)N)C(=O)N1CCC[C@H]1C(=O)NCC)[C@@H](C)CC [compound of formula (Ia), N-Ac-Sar-Gly-Val-DIle-Thr-Nva-Ile-Arg-ProNHCH2CH3] (HELM PEPTIDE1{[ac].[Sar].G.V.[dI].T.[Nva].I.R.P.[CCN[*:1]]}$$$$V2.0)
